In PubChem BioAssay (NCI):
Values joined by “and” are separate entries in the source; they are usually repeats but may differ in a detail not shown here. Equal values may be shown once.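 Interpolation was linear, between the two tested concentrations surrounding the appropriate level; five concentrations were tested over 48 hours in 96-well plates. GI50 marks 50% less growth. TGI denotes the concentration required for complete inhibition of growth.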

test system: MDA-MB-468 breast; test: NCI tumour cell line growth inhibition, 48 h

SMILES	GI50	TGI
C/C(=C\CCc1ccsc1)CC/C=C(\C)CCCN1CCN(CCO)CC1	1.61 µM	4.1 µM
CCCCCCCCn1ccc2cc(NC(=O)Cn3cc(CN4CCC(C)CC4)nn3)ccc21	1.62 µM	3.29 µM
Cc1cc(N2CCN(C)CC2)nc(N(CCNc2ccnc3cc(Cl)ccc23)Cc2ccco2)n1	2.07 µM	6.1 µM
NC(Cc1ccc(O)cc1)C(=O)N/N=C/c1ccc(N(CCCl)CCCl)cc1 (stereo not drawn)	0.958 µM	10.5 µM
c1cc2ccc3cc2cc1CNCCOCCNCc1ccc2ccc(cc2c1)CNCCOCCNC3	> 100 µM	> 100 µM
O=C1c2cccc3cccc(c23)C(=O)N1CC#Cc1ccc2c3c(cccc13)C(=O)N(CCN1CCNCC1)C2=O	2.19 µM	5.3 µM
C=C1C(=O)O[C@H]2[C@H]1CC/C(COC(=O)c1cccc3ccccc13)=C\CC[C@@]1(C)O[C@@H]21	1.35 µM	3.13 µM
CS(=O)/C(C#N)=C\C=C\c1cccc(Cl)c1 (stereo not drawn)	1.27 µM	4.28 µM
Nc1ncnc2c1nc(N)n2C1OC(CO)C(O)C1O (stereo not drawn)	0.22 µM	1.15 µM
CCCCCCCCCCCCNC(=O)[C@H]1CSC(c2cc(Br)cs2)N1 (stereo partly drawn)	0.89 µM	1.74 µM
N#Cc1ccc(N2Cc3cc(Cl)ccc3OC3=C2C(=O)N(Cc2ccc(F)cc2)C3=O)cc1	0.595 µM	1.34 µM
COc1cc2nc(Cl)nc(Nc3cccc(C4=Nc5c(N)nc(N)nc5NC(c5ccc(Cl)cc5)C4)c3)c2cc1OC (stereo not drawn)	1.73 µM	3.49 µM
Cc1ccc2c(n1)C(=O)C(Cl)=C(Nc1ccc(N3CCN(C)CC3)cc1)C2=O	1.51 µM	3.13 µM
Cc1ccn2c(-c3csc(Nc4cccc(O)c4)n3)c(C)nc2c1	1.77 µM	7.91 µM
COc1ccccc1N(C(C)=O)C1=C(Cl)C(=O)c2ccccc2C1=O	0.487 µM	1.94 µM
NS(=O)(=O)c1cccc(-c2cc3ccncc3cc2OCc2ccccc2)c1	4.08 µM	16 µM
Cc1ccc(-c2c3c(N)nc(-c4ccncc4)nc3nc3c2c(C)nn3-c2ccccc2)cc1	> 37.5 µM	> 37.5 µM
O=C(NC1CCNCC1)c1[nH]ncc1NC(=O)c1c(Cl)cccc1Cl	0.191 µM and 0.209 µM	0.434 µM and 0.525 µM
O=C1NC(=O)C(N2CCc3ccccc32)=C1c1ccc(Cl)cc1	> 25 µM	> 25 µM
Cc1cc(NS(=O)(=O)c2ccc(NC(=O)COc3ccc(-c4cc5ccccc5[nH]4)cc3)cc2)no1	1.61 µM	3.52 µM
Nc1cccc2c1CN(C1CCC(=O)NC1=O)C2=O (stereo not drawn)	> 100 µM	> 100 µM
O=[N+]([O-])c1ccc(N/N=C/c2ccccc2O)nc1	3.12 µM	29.9 µM

SMILES	GI50	TGI
Cc1ccc(NC(C(=O)c2ccccc2)c2ccccc2)cc1 (stereo not drawn)	2.18 µM	8.85 µM
COC(=O)c1c2c(c(C)[n+]([O-])c1C)C(=O)C=C(NCc1ccc(Br)cc1)C2=O	0.207 µM	0.816 µM
CCc1ccc(Oc2nccc(-c3c(-c4ccc(F)cc4)ncn3C3CCNCC3)n2)cc1	3.71 µM	7.59 µM
COc1cc(OC)cc(C(=O)Nc2cccc(C#Cc3cccc4[nH]nc(N)c34)c2)c1	0.558 µM	3.92 µM
CCOC(=O)C1=C(C)NC(C)=C(C(=O)OCC)C1c1cc(Br)c(O)c(OC)c1	2.88 µM	14.4 µM
O=[N+]([O-])c1ccc(Oc2cccc(C(F)(F)F)c2)c([N+](=O)[O-])c1	1.64 µM	3.1 µM
C[C@@H](Oc1cc(-c2cnn(C3CC4(CNC4)C3)c2)cnc1N)c1c(Cl)ccc(F)c1Cl	2.46 µM	9.35 µM
CC(=O)Nc1c(I)c(C(=O)O)c(I)c(N(C)C(C)=O)c1I	> 100 µM	> 100 µM
Oc1[nH]c2ccc(Cl)cc2c1/C=c1/ccc2c(c1)N=C(c1ccc(C(F)(F)F)cc1)N=2	1.94 µM	4.57 µM
O=C1c2ccccc2C(=O)c2c(NCCNCCO)ccc(NCCNCCO)c21	0.904 µM and 1.3 µM and 1.66 µM	2.45 µM and 2.92 µM and 3.84 µM
CCN1CCN(CC(=O)Nc2nc3ccc(NCc4ccc(C)cc4)cc3s2)CC1	2.03 µM	8.96 µM
CCOC(=O)c1c(C(F)(F)F)n([O-])c2ccc(Cl)cc2[n+]1=O	1.79 µM	3.92 µM
COc1ccc(C2=NNC(c3cc(Cc4ccc(O)c(C5CC(c6ccc(OC)cc6)=NN5)c4)ccc3O)C2)cc1 (stereo not drawn)	2.97 µM	22.9 µM
O=c1[nH]cc(CO)c(=O)[nH]1	> 100 µM	> 100 µM
Cc1ccc(C2NC(=S)N3C(c4ccc(C)cc4)NC(=S)N23)cc1 (stereo not drawn)	4.62 µM	18.9 µM
O=C(N/N=C/c1ccncc1)c1ccc(C(F)(F)F)nc1Nc1cccc(C(F)(F)F)c1	1.35 µM	4.39 µM
Cc1ccc(-n2nnc3c(sc4ccccc43)c2=O)cc1	18.5 µM	> 100 µM
O=S1CCN(Cc2ccc(-c3ccc4ncnc(Nc5ccc(OCc6ccccc6)c(F)c5)c4c3)o2)CC1	0.13 µM	1.19 µM
O=C(Nc1ccc2cc3ccc(NC(=O)N4CCCCCC4)cc3nc2c1)N1CCCCCC1	1.56 µM	3.03 µM
COc1ccc(Oc2nc(Nc3ccc(N4CCOCC4)cc3)ncc2NC(=O)Nc2cc(OC)cc(OC)c2)cc1	3.39 µM	11.7 µM
O=c1c(-c2ccc3c(c2)OCO3)coc2c(CO)c(O)ccc12	1.85 µM	5.37 µM
Cc1cc(Br)c2nsnc2c1[N+](=O)[O-]	1.45 µM	3.24 µM
